From ChEMBL document CHEMBL5321281, “Synthesis and Biological Evaluation of Heterocyclic Ring-Fused 20(S)-Protopanaxadiol Derivatives as Potent Antiosteoporosis Agents” (J Med Chem, 2023)
Calls of active or inactive are those of the source. The calls are words filed in the database; no cut-off is given here.

Tests used:
Mus musculus [1] = assay: Protective effect in ovariectomy induced osteoporosis C57BL/6 mouse model assessed as inhibition of OVX-induced osteoblast activity by analysing osteoblast number in proximal femur at 3 mg/kg, ip and measured after 6 weeks by TRAP staining based microscopic analysis; type: functional, organism-based
Mus musculus [2] = assay: Protective effect in ovariectomy induced osteoporosis C57BL/6 mouse model assessed as inhibition of OVX-induced osteoclast activity by analysing osteoclast area in proximal femur at 3 mg/kg, ip and measured after 6 weeks by H and E staining based microscopic analysis; type: functional, organism-based
BMMC [3] = assay: Cytotoxicity against C57/BL6 mouse BMMC cells assessed as reduction in cell viability at 10 uM incubated for 24 hrs by CCK-8 assay; type: toxicity, cell-based
BMMC [4] = assay: Anti-osteoclastogenic activity in C57/BL6 mouse BMMC cells assessed as inhibition of RANKL-induced osteoclast differentiation at 0.1 uM incubated for 5 to 7 days in presence of M-CSF by TRAP staining based microscopic analysis relative to control; type: functional; details: time 5-7 day
BMMC [5] = assay: Anti-osteoclastogenic activity in C57/BL6 mouse BMMC cells assessed as inhibition of RANKL-induced osteoclast differentiation incubated for 5 to 7 days in presence of M-CSF by TRAP staining based microscopic analysis relative to control; type: functional, cell-based
[6] = Microsomal stability in mouse liver microsomes assessed as intrinsic clearance at 1 uM and measured upto 60 mins by LC-MS/ MS analysis; type: ADME, Microsome; details: read-out: CLH
[7] = Microsomal stability in mouse liver microsomes assessed as parent compound remaining at 1 uM and measured after 60 mins by LC-MS/ MS analysis; type: ADME, Microsome; details: read-out: Stability
[8] = Tmax in ICR mouse at 1 mg/kg, iv and measured upto 24 hrs by LC-MS/MS analysis; type: ADME, organism-based; details: in vivo
[9] = Cmax in ICR mouse at 1 mg/kg, iv and measured upto 24 hrs by LC-MS/MS analysis; type: ADME, organism-based; set-up: dose 1 mg/kg, time < 24 hrs, route iv; details: in vivo
[10] = AUC (0 to infinity) in ICR mouse at 1 mg/kg, iv and measured upto 24 hrs by LC-MS/MS analysis; type: ADME, organism-based; set-up: dose 1 mg/kg, time < 24 hrs, route iv; details: in vivo
[11] = Apparent volume of distribution in ICR mouse at 1 mg/kg, iv and measured upto 24 hrs by LC-MS/MS analysis; type: ADME, organism-based; details: in vivo, read-out: Vz
[12] = Clearance in ICR mouse at 1 mg/kg, iv and measured upto 24 hrs by LC-MS/MS analysis; type: ADME, organism-based; details: in vivo
[13] = Half life in ICR mouse at 1 mg/kg, iv and measured upto 24 hrs by LC-MS/MS analysis; type: ADME, organism-based; details: in vivo
[14] = Tmax in ICR mouse at 10 mg/kg, po and measured upto 24 hrs by LC-MS/MS analysis; type: ADME, organism-based; details: in vivo
[15] = AUC (0 to infinity) in ICR mouse at 10 mg/kg, po and measured upto 24 hrs by LC-MS/MS analysis; type: ADME, organism-based; set-up: dose 10 mg/kg, time < 24 hrs, route po; details: in vivo
[16] = Half life in ICR mouse at 10 mg/kg, po and measured upto 24 hrs by LC-MS/MS analysis; type: ADME, organism-based; details: in vivo
[17] = Oral bioavailability in ICR mouse at 10 mg/kg and measured upto 24 hrs by LC-MS/MS analysis; type: ADME, organism-based; details: in vivo
BMMC [18] = assay: Anti-osteoclastogenic activity in C57/BL6 mouse BMMC cells assessed as inhibition of RANKL-induced osteoclast differentiation at 0.01 to 5 uM incubated for 5 to 7 days in presence of M-CSF by TRAP staining based microscopic analysis relative to control; type: functional, cell-based; details: dose 0.01-5 µM, time 5-7 day
BMMC [19] = assay: Anti-osteoclastogenic activity in C57/BL6 mouse BMMC cells assessed as reduction in RANKL-induced TRAP mRNA expression level at 0.1 uM incubated for 1 to 5 days in presence of M-CSF by qRT-PCR analysis; type: functional, cell-based; details: time 1-5 day, TDE = time-dependent effect
BMMC [20] = assay: Anti-osteoclastogenic activity in C57/BL6 mouse BMMC cells assessed as inhibition of RANKL-induced osteoclast differentiation by measuring number of TRAP-positive multinucleated cells at 0.01 to 5 uM incubated for 5 to 7 days in presence of M-CSF by TRAP staining based microscopic analysis relative to control; type: functional, cell-based; details: dose 0.01-5 µM, time 5-7 day
BMMC [21] = assay: Anti-osteoclastogenic activity in C57/BL6 mouse BMMC cells assessed as inhibition of RANKL-stimulated osteoclastogenesis at 1 uM and compound added at day 3 to 5 (mid stage) and measured after 5 days in presence of M-CSF by TRAP staining based microscopic analysis relative to control; type: functional; details: 120 h, time 5 day
BMMC [22] = assay: Anti-osteoclastogenic activity in C57/BL6 mouse BMMC cells assessed as inhibition of RANKL-stimulated osteoclastogenesis at 1 uM and compound added at day 5 to 7 (late stage) and measured after 3 days in presence of M-CSF by TRAP staining based microscopic analysis relative to control; type: functional; details: 72 h, time 3 day
BMMC [23] = assay: Anti-osteoclastogenic activity in C57/BL6 mouse BMMC cells assessed as reduction in RANKL-induced MMP-9 mRNA expression level at 0.1 uM incubated for 1 to 5 days in presence of M-CSF by qRT-PCR analysis; type: functional, cell-based; details: time 1-5 day, TDE = time-dependent effect
BMMC [24] = assay: Anti-osteoclastogenic activity in C57/BL6 mouse BMMC cells assessed as reduction in RANKL-induced TRAP protein expression level at 0.1 uM incubated for 1 to 3 days in presence of M-CSF by Western blot anlaysis; type: functional, cell-based; details: time 1-3 day
BMMC [25] = assay: Anti-osteoclastogenic activity in C57/BL6 mouse BMMC cells assessed as reduction in RANKL-induced CTSK protein expression level at 0.1 uM incubated for 1 to 3 days in presence of M-CSF by Western blot anlaysis; type: functional, cell-based; details: time 1-3 day
BMMC [26] = assay: Anti-osteoclastogenic activity in C57/BL6 mouse BMMC cells assessed as reduction in RANKL-induced MMP-9 protein expression level at 0.1 uM incubated for 1 to 3 days in presence of M-CSF by Western blot anlaysis; type: functional, cell-based; details: time 1-3 day
MC3T3-E1 = assay: Induction of osteoblastogenesis in beta-glycerophosphate and vitamin C stimulated mouse MC3T3-E1 cells assessed as increase in ALP activity at 0.1 uM incubated for 7 days by ALP staining based microscopic analysis; type: functional, cell-based; details: time 7.0 day
Mus musculus [27] = assay: Protective effect in ovariectomy induced osteoporosis C57BL/6 mouse model assessed as increase in bone volume/tissue volume (BV/TV) in RIO of femur at 1 mg/kg, ip and measured after 6 weeks by micro-CT analysis; type: functional
Mus musculus [28] = assay: Protective effect in ovariectomy induced osteoporosis C57BL/6 mouse model assessed as increase in bone volume/tissue volume (BV/TV) in RIO of femur at 3 mg/kg, ip and measured after 6 weeks by micro-CT analysis; type: functional
Mus musculus [29] = assay: Protective effect in ovariectomy induced osteoporosis C57BL/6 mouse model assessed as increase in trabecular bone number (Tb.N) in RIO of femur at 1 to 3 mg/kg, ip and measured after 6 weeks by micro-CT analysis; type: functional, organism-based; details: dose 1-3 mg/kg
Mus musculus [30] = assay: Protective effect in ovariectomy induced osteoporosis C57BL/6 mouse model assessed as increase in trabecular separation (Tb.Sp) in RIO of femur at 1 to 3 mg/kg, ip and measured after 6 weeks by micro-CT analysis; type: functional, organism-based; details: dose 1-3 mg/kg

## C=C(CCC=C(C)C)[C@H]1CC[C@]2(C)[C@@H]1[C@H](O)C[C@@H]1[C@@]3(C)Cc4cnc(C)nc4C(C)(C)[C@@H]3CC[C@]12C
Mus musculus [1]
  inhibition: inactive
Mus musculus [2]
  inhibition: Active
BMMC [3]
  Activity: >= 100%
BMMC [4]
  inhibition at 0.1 µM: 100%
BMMC [5]
  IC50: 10.3 nM
[6]
  microsomal CLint at 1 µM: 37.4 µL/min/mg
[7]
  remaining at 1 h, 1 µM: 31%
[8]
  Tmax: 4.8 min
[9]
  Cmax: 4180 ng/mL
[10]
  AUC(0-inf): 1170 ng·h/mL
[11]
  Vd: 0.413 L/kg
[12]
  clearance: 14.2 mL/min/kg
[13]
  half-life: 20.2 min
[14]
  Tmax: 60 min
[15]
  AUC(0-inf): 1230 ng·h/mL
[16]
  half-life: 61.8 min
[17]
  bioavailability: 10.5%
BMMC [18]
  inhibition: Dose-Dependent Effect
BMMC [19]
  Activity: Tde
BMMC [20]
  inhibition: Dose-Dependent Effect
BMMC [21]
  inhibition at 1 µM: 94.4%
BMMC [22]
  inhibition at 1 µM: 62.3%
BMMC [23]
  Activity: Tde
BMMC [24]
  Activity: Active
BMMC [25]
  Activity: Active
BMMC [26]
  Activity: Active
MC3T3-E1
  Activity: Active
Mus musculus [27]
  Activity: 5.6%
Mus musculus [28]
  Activity: 23.2%
Mus musculus [29]
  Activity: Active
Mus musculus [30]
  Activity: Active
